Experimental data published in publication PMC12472637, “Use of TLC and Computational Methods to Determine Lipophilicity Parameters of Selected Neuroleptics: Comparison of Experimental and Theoretical Studies” (Pharmaceuticals, 2025).

Tests used:
[1] = RP-TLC chromatographic parameter of lipophilicity (RMW), Soczewiński–Wachtmeister extrapolation; assay type: physicochemical; design: key: RM = log((1−Rf)/Rf), extrapolated via Soczewiński–Wachtmeister equation
Source text: As part of the continuation of this study, we attempted to use the experimental, i.e., chromatographic method to determine the lipophilicity parameter of five commercially available neuroleptics: fluphenazine, triflupromazine, trifluoperazine, flupentixol and zuclopenthixol. As described in the Materials and Methods Section, we successfully applied thin-layer chromatography in a reverse-phase system (RP-TLC) and various systems containing chromatographic plates: RP-2F254, RP-8F254 and RP-18F254. […] The chromatographic parameter of lipophilicity RMW obtained under these conditions, using Soczewiński-Wachtmeister's equation, is presented in Table 5. […] Sufficient linearity of these relationships was confirmed by a high correlation coefficient (r), significant p-values, a low standard error of estimate and a high Fisher F-distribution value. […] The content of organic modifier varied from 40% to 90% in 5% increments. Five microliters of each sample solution was spotted as separate spots with a 5 mm width. Plates were developed at ambient temperature (20 ± 2 °C) to a distance of 70 mm in a horizontal chamber ([…], Switzerland) and then visualized under UV light (λ = 254 nm). All measurements were performed in triplicate. The mean value of the retardation factor (Rf) of each compound was used to calculate the RM values:(1) […] The characteristic of the obtained linear plots are given in the Supplementary Materials as Tables S2-S6.

[2] = design: method as in earlier work; details: logP in n-octanol-water, DrugBank; cited from earlier work
[3] = RP-2F254 plates, 1,4-dioxane–TRIS buffer (pH 7.4)
[4] = RP-2F254 plates, acetone–TRIS buffer (pH 7.4)
[5] = RP-2F254 plates, acetonitrile–TRIS buffer (pH 7.4)
[6] = RP-8F254 plates, 1,4-dioxane–TRIS buffer (pH 7.4)
[7] = RP-8F254 plates, acetone–TRIS buffer (pH 7.4)
[8] = RP-8F254 plates, acetonitrile–TRIS buffer (pH 7.4)
[9] = RP-18F254 plates, 1,4-dioxane–TRIS buffer (pH 7.4)
[10] = RP-18F254 plates, acetone–TRIS buffer (pH 7.4)
[11] = RP-18F254 plates, acetonitrile–TRIS buffer (pH 7.4)

SMILES | RMW [1, 3] | RMW [1, 4] | RMW [1, 5] | RMW [1, 6] | RMW [1, 7] | RMW [1, 8] | RMW [1, 9] | RMW [1, 10] | RMW [1, 11] | logPexp [2] | further results
OCCN1CCN(CC/C=C2/c3ccccc3Sc3ccc(C(F)(F)F)cc32)CC1 [Flupentixol, flupentixol] | 2.782 | 2.829 | −0.427 | 2.363 | 2.702 | −1.165 | 2.468 | 2.762 | −1.058 | 4.51 | RMW ([1]; RP-2F254 plates, 1,4-dioxane–TRIS buffer (pH 7.4), listed as flupentixol): 2.782±0.094; RMW ([1]; RP-2F254 plates, acetone–TRIS buffer (pH 7.4), listed as flupentixol): 2.829±0.194; RMW ([1]; RP-2F254 plates, acetonitrile–TRIS buffer (pH 7.4), listed as flupentixol): -0.427±0.153; RMW ([1]; RP-8F254 plates, 1,4-dioxane–TRIS buffer (pH 7.4), listed as flupentixol): 2.363±0.214; RMW ([1]; RP-8F254 plates, acetone–TRIS buffer (pH 7.4), listed as flupentixol): 2.702±0.228; RMW ([1]; RP-8F254 plates, acetonitrile–TRIS buffer (pH 7.4), listed as flupentixol): -1.165±0.108; RMW ([1]; RP-18F254 plates, 1,4-dioxane–TRIS buffer (pH 7.4), listed as flupentixol): 2.468±0.246; RMW ([1]; RP-18F254 plates, acetone–TRIS buffer (pH 7.4), listed as flupentixol): 2.762±0.175; RMW ([1]; RP-18F254 plates, acetonitrile–TRIS buffer (pH 7.4), listed as flupentixol): -1.058±0.077
CN(C)CCCN1c2ccccc2Sc2ccc(C(F)(F)F)cc21 [Triflupromazine, triflupromazine] | 2.890 | 3.046 | −0.405 | 2.153 | 2.690 | −0.334 | 2.342 | 2.718 | −0.361 | – | RMW ([1]; RP-2F254 plates, 1,4-dioxane–TRIS buffer (pH 7.4), listed as triflupromazine): 2.890±0.232; RMW ([1]; RP-2F254 plates, acetone–TRIS buffer (pH 7.4), listed as triflupromazine): 3.046±0.271; RMW ([1]; RP-2F254 plates, acetonitrile–TRIS buffer (pH 7.4), listed as triflupromazine): -0.405±0.166; RMW ([1]; RP-8F254 plates, 1,4-dioxane–TRIS buffer (pH 7.4), listed as triflupromazine): 2.153±0.213; RMW ([1]; RP-8F254 plates, acetone–TRIS buffer (pH 7.4), listed as triflupromazine): 2.690±0.232; RMW ([1]; RP-8F254 plates, acetonitrile–TRIS buffer (pH 7.4), listed as triflupromazine): -0.334±0.019; RMW ([1]; RP-18F254 plates, 1,4-dioxane–TRIS buffer (pH 7.4), listed as triflupromazine): 2.342±0.261; RMW ([1]; RP-18F254 plates, acetone–TRIS buffer (pH 7.4), listed as triflupromazine): 2.718±0.168; RMW ([1]; RP-18F254 plates, acetonitrile–TRIS buffer (pH 7.4), listed as triflupromazine): -0.361±0.084
OCCN1CCN(CC/C=C2/c3ccccc3Sc3ccc(Cl)cc32)CC1 [Zuclopenthixol, zuclopenthixol] | 2.459 | 2.529 | 0.582±0.089 | 1.981 | 2.206 | −1.206 | 2.110 | 2.218 | 2.411 | – | RMW ([1]; RP-2F254 plates, 1,4-dioxane–TRIS buffer (pH 7.4), listed as zuclopenthixol): 2.459±0.130; RMW ([1]; RP-2F254 plates, acetone–TRIS buffer (pH 7.4), listed as zuclopenthixol): 2.529±0.252; RMW ([1]; RP-8F254 plates, 1,4-dioxane–TRIS buffer (pH 7.4), listed as zuclopenthixol): 1.981±0.189; RMW ([1]; RP-8F254 plates, acetone–TRIS buffer (pH 7.4), listed as zuclopenthixol): 2.206±0.207; RMW ([1]; RP-8F254 plates, acetonitrile–TRIS buffer (pH 7.4), listed as zuclopenthixol): -1.206±0.139; RMW ([1]; RP-18F254 plates, 1,4-dioxane–TRIS buffer (pH 7.4), listed as zuclopenthixol): 2.110±0.176; RMW ([1]; RP-18F254 plates, acetone–TRIS buffer (pH 7.4), listed as zuclopenthixol): 2.218±0.238; RMW ([1]; RP-18F254 plates, acetonitrile–TRIS buffer (pH 7.4), listed as zuclopenthixol): 2.411±0.454

Continued, in another order:

RMW [1, 3] | RMW [1, 4] | RMW [1, 5] | RMW [1, 6] | RMW [1, 7] | RMW [1, 8] | RMW [1, 9] | RMW [1, 10] | RMW [1, 11] | SMILES | logPexp [2] | further results
2.653 | 2.834 | −0.777 | 2.340 | 2.591 | −1.230 | 2.454 | 2.702 | −0.995 | OCCN1CCN(CCCN2c3ccccc3Sc3ccc(C(F)(F)F)cc32)CC1 [Fluphenazine, fluphenazine] | 4.36 | RMW ([1]; RP-2F254 plates, 1,4-dioxane–TRIS buffer (pH 7.4), listed as fluphenazine): 2.653±0.058; RMW ([1]; RP-2F254 plates, acetone–TRIS buffer (pH 7.4), listed as fluphenazine): 2.834±0.219; RMW ([1]; RP-2F254 plates, acetonitrile–TRIS buffer (pH 7.4), listed as fluphenazine): -0.777±0.074; RMW ([1]; RP-8F254 plates, 1,4-dioxane–TRIS buffer (pH 7.4), listed as fluphenazine): 2.340±0.230; RMW ([1]; RP-8F254 plates, acetone–TRIS buffer (pH 7.4), listed as fluphenazine): 2.591±0.210; RMW ([1]; RP-8F254 plates, acetonitrile–TRIS buffer (pH 7.4), listed as fluphenazine): -1.230±0.164; RMW ([1]; RP-18F254 plates, 1,4-dioxane–TRIS buffer (pH 7.4), listed as fluphenazine): 2.454±0.279; RMW ([1]; RP-18F254 plates, acetone–TRIS buffer (pH 7.4), listed as fluphenazine): 2.702±0.189; RMW ([1]; RP-18F254 plates, acetonitrile–TRIS buffer (pH 7.4), listed as fluphenazine): -0.995±0.098
3.333 | 3.348 | −0.568 | 2.547 | 2.754 | −1.023 | 2.580 | 2.714 | −0.810 | CN1CCN(CCCN2c3ccccc3Sc3ccc(C(F)(F)F)cc32)CC1 [Trifluoperazine, trifluoperazine] | 5.03 | RMW ([1]; RP-2F254 plates, 1,4-dioxane–TRIS buffer (pH 7.4), listed as trifluoperazine): 3.333±0.328; RMW ([1]; RP-2F254 plates, acetone–TRIS buffer (pH 7.4), listed as trifluoperazine): 3.348±0.250; RMW ([1]; RP-2F254 plates, acetonitrile–TRIS buffer (pH 7.4), listed as trifluoperazine): -0.568±0.088; RMW ([1]; RP-8F254 plates, 1,4-dioxane–TRIS buffer (pH 7.4), listed as trifluoperazine): 2.547±0.277; RMW ([1]; RP-8F254 plates, acetone–TRIS buffer (pH 7.4), listed as trifluoperazine): 2.754±0.209; RMW ([1]; RP-8F254 plates, acetonitrile–TRIS buffer (pH 7.4), listed as trifluoperazine): -1.023±0.082; RMW ([1]; RP-18F254 plates, 1,4-dioxane–TRIS buffer (pH 7.4), listed as trifluoperazine): 2.580±0.271; RMW ([1]; RP-18F254 plates, acetone–TRIS buffer (pH 7.4), listed as trifluoperazine): 2.714±0.200; RMW ([1]; RP-18F254 plates, acetonitrile–TRIS buffer (pH 7.4), listed as trifluoperazine): -0.810±0.074
